{"source": "patent US10905777B2", "about": "“Systems and methods for nucleic acid expression in vivo” (DNARx, priority 2015, dated 2021)", "key": {"human G-CSF": {"test_system": "human G-CSF", "assay": "Serum human G-CSF ELISA in mice after sequential IV cationic liposome then CPG-free DNA vector injection", "assay_type": "in vivo", "settings": "IP 2 hours before and 2 hours after 900 nmol DOTAP SUV then 70 ug DNA, dexamethasone 40 mg/kg, Tofacitinib 15 mg/kg", "description": "Three to five mice were injected per group.\nEach mouse was anesthetized and then bled via the submandibular vein. Serum was then isolated from whole blood and human G-CSF levels measured in pg/ml, as performed strictly according to the manufacturer's specifications, using an R and D systems human G-CSF ELISA.\nFive mice were injected per group. […] Serum hG-CSF levels were assessed beginning at day seven after IV injection, and at seven-day intervals thereafter.\nSera were collected from groups of four mice at either day 6 or 14 following sequential, IV injection of 800 nmoles of pure DOTAP MLV cationic liposomes, followed two minutes later by IV injection of 40 μg either an EF1-luciferase—EF1-hGCSF (2 expression cassette) or an EF1-hGCSF (1 expression cassette), CPG-free, single plasmid DNA vector.\nSera were collected from groups of four mice at day 1 following sequential, IV injection of buffer alone (control), 1000 nmoles of pure DOTAP SUV cationic liposomes, alone or co-injected with 1000 nmol of neutral MLV, followed two minutes later by IV injection of 120 μg an EF1-luciferase—EF1-hGCSF (2 expression cassette), CPG-free, single plasmid DNA vector or 1400 nmoles of pure DOTAP SUV cationic liposomes, alone or co-injected with 1000 nmol of neutral MLV, followed two minutes later by IV injection of 100 μg of EF1-luciferase—EF1-hGCSF DNA. […]"}, "[1]": {"test_system": "CD20-expressing human Raji B cells", "assay": "FACS binding to Raji cells", "assay_type": "cell-based", "settings": "anti-human IgG-PE, serum six weeks after injection", "protocol": "In this Example, Raji cells (1 million/sample) were incubated with mouse serum samples or recombinant Rituximab (50 ng/ml) for 1 hr at 4C, in FACS binding buffer containing EDTA and 0.5% BSA. Following washes, samples were incubated with fluorescently labeled secondary antibody (anti-human IgG-PE) for 30 min, washed and analyzed using an Accuri flow cytometer. Between 3500-5000 events were recorded for each sample. The experiment was repeated twice with similar results."}, "human factor IX": {"test_system": "human factor IX", "assay": "Human Factor IX ELISA in mice", "settings": "24 hrs, IP pre-treatment (VPA 2 mg/kg, Theo 30 mg/kg), 1500 nmoles DexP DOTAP SUV, 60 ug factor IX vector, Dex", "description": "In this Example, three mice were injected per group. […] This was followed two minutes later by a single IV injection of 60 ug of a codon optimized, EF-1-driven single cassette DNA vector encoding the human factor IX cDNA (see constructs in FIGS. 38 and 44). […] Where indicated, animals were also pretreated by IP injection of 2 mg/kg Valproic Acid (VPA) or 30 mg/kg Theophylline (Theo). […] Each mouse was bled as for G-CSF. Blood was collected into tubes containing Potassium EDTA or Sodium Citrate to prevent coagulation and centrifuged to obtain plasma. An AssayPro ELISA specific to human Factor IX was used according to manufacturer's instructions to measure Factor IX expression."}, "Rituximab": {"test_system": "Rituximab", "assay": "Serum Rituximab ELISA in mice after sequential injection of Rituximab DNA vector", "assay_type": "in vivo", "settings": "24 hours, IP pre-treatment (VPA 15 or 2 mg/kg, Theo 30 or 15 mg/kg), 1050 nmoles DexP liposomes, 75 ug DNA, Dex", "protocol": "Mice were bled and serum isolated as for G-CSF. Rituximab levels were measured using an Immunoguide ELISA obtained from Eagle Biosciences, and performed according to instructions. […] .\n. […] Numbered plasmids (in FIG. 30) were codon-optimized versions of the original, CpG-free but not codon optimized Rituximab DNA sequence.\n. […] Thus, significant Rituximab serum levels can be produced by either dual- or single-cassette, 2A peptide-containing DNA vectors.\n. Mock-injected mice received LR only without lipid or DNA. Serum levels of Rituximab protein and ALT were assayed 24 hrs later."}, "luciferase [2]": {"test_system": "luciferase", "assay": "Mouse spleen luciferase levels after IV PEI:EF-1 Luc DNA complexes with drug pre-injection", "assay_type": "in vivo", "settings": "mice; day 1; IP drug two hours prior to IV PEI:DNA (12.5 μg); amlexanox 200 μg, chloroquine 1 mg, SAHA 200 μg, tofacitinib 300 μg per mouse"}, "luciferase [3]": {"test_system": "luciferase", "assay": "Mouse lung luciferase activity after IV DNA vector delivery", "assay_type": "in vivo", "settings": "mice, day 7", "protocol": "Lung was homogenized with 500 ul of 1× Lysis buffer (Promega, Wis.). The homogenate was centrifuged at 3000×g at 4C for 10 min. and the supernatant collected. Luciferase activity was assayed using 20 μl of supernatant and 100 μl of Luciferase reagent for 10 seconds using a GloMax® Luminometer (Promega, Wis.).\nIn each case, cationic liposome injection was followed two minutes later by IV injection of 40 μg of an mCMV-EF1-luciferase, CPG-free, single cassette, DNA vector. […]"}, "[4]": {"settings": "in vivo; cited from earlier work"}, "[5]": {"settings": "drug with 800 nmoles DOTAP MLV (L-arginine 2 mg/kg, colchicine 0.01 mg/kg, dexamethasone 1 mg/kg) then 40 μg single cassette mCMV-EF1-luciferase"}, "[6]": {"settings": "drug with 800 nmoles DOTAP MLV then 40 μg dual cassette EF1-luciferase—EF1-hGCSF"}}}
{"molecule": "C[C@@H]1CCN(C(=O)CC#N)C[C@@H]1N(C)c1ncnc2[nH]ccc12", "note": "[tofacitinib]", "values": [{"measurement": "HuG-CSF protein levels", "setting": "human G-CSF", "result": "did neither"}]}
{"molecule": "Recombinant Rituximab: recombinant Rituximab (anti-CD20) protein used as reference", "values": [{"measurement": "Mean Fluorescence Intensity", "setting": "[1]", "result": 5781.87}]}
{"molecule": "CCCC(CCC)C(=O)O", "note": "[valproic acid]", "values": [{"measurement": "serum human factor IX levels", "setting": "human factor IX", "result": "significantly higher"}, {"measurement": "serum Rituximab levels", "setting": "Rituximab", "result": "significantly increased"}]}
{"molecule": "CC(C)c1ccc2oc3nc(N)c(C(=O)O)cc3c(=O)c2c1", "note": "[amlexanox]", "values": [{"measurement": "spleen gene expression (luciferase) levels", "setting": "luciferase [2]", "result": "increased gene expression levels"}]}
{"molecule": "Cn1c(=O)c2[nH]cnc2n(C)c1=O", "note": "[Theophylline]", "values": [{"measurement": "serum human factor IX levels", "setting": "human factor IX", "result": "significantly higher"}, {"measurement": "serum Rituximab levels", "setting": "Rituximab", "result": "significantly increased"}]}
{"molecule": "COc1cc2c(c(OC)c1OC)-c1ccc(OC)c(=O)cc1[C@@H](NC(C)=O)CC2", "note": "[colchicine]", "values": [{"measurement": "luciferase activity in the lung vs DOTAP MLV alone (control)", "setting": "luciferase [3]; [5]", "result": "higher luciferase activity"}]}
{"molecule": "N=C(N)NCCC[C@H](N)C(=O)O", "note": "[L-arginine]", "values": [{"measurement": "luciferase activity in the lung vs DOTAP MLV alone (control)", "setting": "luciferase [3]; [5]", "result": "failed to increase gene expression levels"}, {"measurement": "luciferase activity in the lung vs DOTAP MLV alone (control)", "setting": "luciferase [3]; [6]", "result": "either lower than or comparable to controls"}]}
{"molecule": "O=C(CCCCCCC(=O)Nc1ccccc1)NO", "note": "[SAHA, suberanilohydroxamic acid]", "values": [{"measurement": "spleen gene expression (luciferase) levels", "setting": "luciferase [2]", "result": "increased gene expression levels"}]}
{"molecule": "CCN(CC)CCCC(C)Nc1ccnc2cc(Cl)ccc12", "note": "(centres unmarked) [chloroquine]", "values": [{"measurement": "spleen gene expression (luciferase) levels", "setting": "luciferase [2]", "result": "increased gene expression levels"}]}
{"molecule": "CCCc1nn(C)c2c(=O)[nH]c(-c3cc(S(=O)(=O)N4CCN(C)CC4)ccc3OCC)nc12", "note": "[sildenafil]", "values": [{"measurement": "luciferase activity in the lung vs DOTAP MLV alone (control)", "setting": "luciferase [3]; [6]", "result": "higher luciferase activity"}]}
{"molecule": "Neupogen: recombinant human G-CSF protein (protein, UniProt P09919 31-207, looked up, filgrastim) Granulocyte …: TPLGPASSLPQSFLLKCLEQVRKIQGDGAALQEKLVSECATYKLCHPEELVLLGHSLGIPWAPLSSCPSQALQLAGCLSQLHSGLFLYQGLLQALEGISPELGPTLDTLQLDVADFATTIWQQMEELGMAPALQPTQGAMPAFASAFQRRAGGVLVASHLQSFLEVSYRVLRHLAQP", "values": [{"measurement": "time for serum hG-CSF levels to return to baseline", "setting": "[4]", "result": "approximately 14 hours"}]}
